Test results published in ChEMBL document CHEMBL4219269, “Synthesis and anti-staphylococcal activity of novel bacterial topoisomerase inhibitors with a 5-amino-1,3-dioxane linker moiety” (Bioorg Med Chem Lett, 2018).
Converted amounts (≈) assume the structure as drawn.

Tests used:
Staphylococcus aureus [1] = assay: Antibacterial activity against methicillin-sensitive Staphylococcus aureus ATCC 29213 by CLSI method; assay type: functional
K562 = assay: Antiproliferative activity against human K562 cells; assay type: cell-based
[2] = molecular target: T1, Voltage-gated inwardly rectifying potassium channel KCNH2 (Homo sapiens, UniProt Q12809); assay: Inhibition of human ERG expressed in CHOK1 cells by patch clamp assay; assay type: cell-based
[3] = Inhibition of human topoisomerase-2 in etoposide-resistant K/VP.5 cells assessed as growth inhibition
Staphylococcus aureus [4] = assay: Antibacterial activity against methicillin-resistant Staphylococcus aureus USA300 by CLSI method; assay type: functional
[5] = Inhibition of Staphylococcus aureus topoisomerase-4-mediated kinetoplast DNA decatenation after 30 mins by agarose gel electrophoresis
Homo sapiens = species on record: Homo sapiens; assay: Inhibition of human topoisomerase-2 mediated kinetoplast DNA decatenation assessed as remaining activity at 100 uM relative to control
DNA gyrase = DNA gyrase (Staphylococcus aureus, UniProt P0A0K8+P20831); assay: Inhibition of Staphylococcus aureus DNA gyrase supercoiling activity using pBR322 as substrate after 30 mins by agarose gel electrophoresis; assay type: protein-complex assay
[6] = Selectivity ratio of IC50 for human K562 cells to MIC for methicillin-sensitive Staphylococcus aureus ATCC 29213; assay type: toxicity
[7] = molecular target: T1, Voltage-gated inwardly rectifying potassium channel KCNH2; assay: Inhibition of human ERG expressed in CHO cells using -80 mV holding potential measured after 3 mins; assay type: cell-based

T1 sequence (Q12809 whole entry): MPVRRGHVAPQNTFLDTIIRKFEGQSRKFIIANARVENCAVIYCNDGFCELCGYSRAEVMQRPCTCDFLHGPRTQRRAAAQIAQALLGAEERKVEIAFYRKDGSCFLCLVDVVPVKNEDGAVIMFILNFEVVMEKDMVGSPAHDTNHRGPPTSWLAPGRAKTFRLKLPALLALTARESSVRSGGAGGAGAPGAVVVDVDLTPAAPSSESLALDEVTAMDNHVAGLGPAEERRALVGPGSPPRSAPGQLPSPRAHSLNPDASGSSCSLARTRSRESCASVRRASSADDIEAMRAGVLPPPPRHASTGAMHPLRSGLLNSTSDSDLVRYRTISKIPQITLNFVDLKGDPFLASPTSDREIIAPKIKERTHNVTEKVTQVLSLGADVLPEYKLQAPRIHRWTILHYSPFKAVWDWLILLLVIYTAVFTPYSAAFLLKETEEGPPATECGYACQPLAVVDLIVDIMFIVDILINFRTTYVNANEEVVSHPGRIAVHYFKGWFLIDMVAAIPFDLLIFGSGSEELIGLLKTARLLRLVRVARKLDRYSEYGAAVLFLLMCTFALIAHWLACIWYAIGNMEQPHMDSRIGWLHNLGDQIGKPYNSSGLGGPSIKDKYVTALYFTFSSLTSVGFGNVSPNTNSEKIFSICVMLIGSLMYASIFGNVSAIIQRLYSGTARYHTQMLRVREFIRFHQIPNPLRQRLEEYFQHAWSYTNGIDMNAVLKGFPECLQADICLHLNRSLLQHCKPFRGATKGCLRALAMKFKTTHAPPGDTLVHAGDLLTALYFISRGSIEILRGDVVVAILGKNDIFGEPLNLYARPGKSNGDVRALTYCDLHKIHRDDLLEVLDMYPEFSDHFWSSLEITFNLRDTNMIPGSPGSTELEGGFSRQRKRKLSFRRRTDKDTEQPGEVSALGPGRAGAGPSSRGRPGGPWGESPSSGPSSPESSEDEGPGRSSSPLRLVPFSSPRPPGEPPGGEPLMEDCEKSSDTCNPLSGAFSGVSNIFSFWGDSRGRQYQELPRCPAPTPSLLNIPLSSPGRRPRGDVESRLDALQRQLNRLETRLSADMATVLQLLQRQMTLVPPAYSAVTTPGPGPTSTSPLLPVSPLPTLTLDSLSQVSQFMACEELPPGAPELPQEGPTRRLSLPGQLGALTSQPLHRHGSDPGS
DNA gyrase, sequence (P0A0K8 whole entry): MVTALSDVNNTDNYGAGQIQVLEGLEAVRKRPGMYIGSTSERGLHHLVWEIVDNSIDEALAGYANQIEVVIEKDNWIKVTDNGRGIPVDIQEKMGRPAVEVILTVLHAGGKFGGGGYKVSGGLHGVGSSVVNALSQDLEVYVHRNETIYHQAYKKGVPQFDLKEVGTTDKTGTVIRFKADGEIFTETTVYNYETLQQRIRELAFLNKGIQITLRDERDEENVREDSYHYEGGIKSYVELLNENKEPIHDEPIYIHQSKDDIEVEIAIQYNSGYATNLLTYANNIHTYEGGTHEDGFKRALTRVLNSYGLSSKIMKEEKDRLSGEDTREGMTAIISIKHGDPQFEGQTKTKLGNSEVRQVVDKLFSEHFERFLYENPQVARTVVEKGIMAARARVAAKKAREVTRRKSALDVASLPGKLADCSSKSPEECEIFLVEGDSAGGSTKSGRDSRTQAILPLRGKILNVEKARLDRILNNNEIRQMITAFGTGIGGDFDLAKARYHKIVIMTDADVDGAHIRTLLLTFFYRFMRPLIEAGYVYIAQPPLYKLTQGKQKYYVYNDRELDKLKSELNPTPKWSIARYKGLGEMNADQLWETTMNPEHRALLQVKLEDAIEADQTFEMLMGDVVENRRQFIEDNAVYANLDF
DNA gyrase, sequence (P20831 whole entry): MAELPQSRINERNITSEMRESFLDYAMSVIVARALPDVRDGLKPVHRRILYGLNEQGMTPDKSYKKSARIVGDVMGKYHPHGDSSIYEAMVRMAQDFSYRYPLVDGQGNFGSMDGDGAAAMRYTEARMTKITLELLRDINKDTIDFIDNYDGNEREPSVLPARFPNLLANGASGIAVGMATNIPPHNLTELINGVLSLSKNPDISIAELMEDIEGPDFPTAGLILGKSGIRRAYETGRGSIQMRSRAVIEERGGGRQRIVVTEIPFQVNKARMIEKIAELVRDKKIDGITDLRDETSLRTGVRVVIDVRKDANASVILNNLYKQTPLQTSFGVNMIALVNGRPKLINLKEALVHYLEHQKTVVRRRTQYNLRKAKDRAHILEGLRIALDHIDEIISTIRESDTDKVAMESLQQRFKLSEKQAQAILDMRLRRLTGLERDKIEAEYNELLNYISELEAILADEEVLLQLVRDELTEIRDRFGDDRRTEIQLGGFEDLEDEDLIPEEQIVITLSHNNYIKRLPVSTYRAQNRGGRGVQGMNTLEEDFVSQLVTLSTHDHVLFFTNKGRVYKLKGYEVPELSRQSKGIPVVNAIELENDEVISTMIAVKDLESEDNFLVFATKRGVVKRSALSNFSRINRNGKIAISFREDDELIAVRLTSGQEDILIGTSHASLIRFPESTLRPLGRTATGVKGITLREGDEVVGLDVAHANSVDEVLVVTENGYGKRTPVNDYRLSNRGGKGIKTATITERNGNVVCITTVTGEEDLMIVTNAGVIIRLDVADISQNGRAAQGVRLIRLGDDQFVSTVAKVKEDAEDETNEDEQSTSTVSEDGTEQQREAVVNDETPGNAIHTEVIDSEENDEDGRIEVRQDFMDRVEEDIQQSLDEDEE

Row | Compound | MIC (Staphylococcus aureus [1]) [µg/mL] | IC50 (K562) [µM] | IC50 [2] [µM] | IC50 [3] [µM] | MIC (Staphylococcus aureus [4]) [µg/mL] | IC50 [5] [µM] | Activity (Homo sapiens) [%] | other results
1 | COc1ccc2nccc(CC[C@H]3OC[C@H](NCc4cccnc4)CO3)c2c1 | > 64 |  |  |  |  |  |  | 
2 | COc1ccc2nccc(CC[C@H]3OC[C@H](NCc4ccccc4Cl)CO3)c2c1 | > 64 |  |  |  |  |  |  | 
3 | COc1ccc2nccc(CCN3CCC(NCc4ccc5c(c4)OCCO5)CC3)c2c1 |  | 10 | 0.81 | 12 |  |  |  | 
4 | COc1ccc2nccc(CC[C@H]3CC[C@H](NCc4ccc(Cl)c(Cl)c4)CC3)c2c1 |  |  | 2.3 |  |  |  |  | 
5 | COc1ccc2nccc(CC[C@H]3OC[C@H](NCc4ccc5c(c4)NC(=O)CO5)CO3)c2c1 | 1 to 2 (≈ 2.22 to 4.45 µM) |  |  |  | 1 (≈ 2.22 µM) | > 100 |  | 
6 | COc1ccc2nccc(CC[C@H]3OC[C@H](NCc4ccccn4)CO3)c2c1 | 8 (≈ 21.1 µM) |  |  |  |  |  |  | 
7 | COc1cc([C@@H]2c3cc4c(cc3[C@@H](O[C@@H]3O[C@@H]5CO[C@@H](C)O[C@H]5[C@H](O)[C@H]3O)[C@H]3COC(=O)[C@H]23)OCO4)cc(OC)c1O [ETOPOSIDE] |  | 0.3 |  | 5.1 |  |  | 33.6 | 
8 | COc1ccc2nccc(CC[C@H]3OC[C@H](NCc4ccc(Cl)c(Cl)c4)CO3)c2c1 |  | 20 | 4.8 | 15 | 0.5 (≈ 1.12 µM) | > 100 | 93.2 | 
9 | COc1ccc2nccc(CC[C@H]3OC[C@H](NCc4cc5c(cn4)OCCC5)CO3)c2c1 | 1 (≈ 2.3 µM) | 32 | 12 | 40 | 2 (≈ 4.59 µM) | 25 to 50 | 93.8 | 
10 | COc1ccc2nccc(CC[C@H]3OC[C@H](NCc4ccc5c(n4)NC(=O)CO5)CO3)c2c1 | 0.5 (≈ 1.11 µM) | 24 | 2.5 | 44 | 1 (≈ 2.22 µM) | > 100 | 99.1 | 
11 | COc1ccc2nccc(CC[C@H]3OC[C@H](NCc4ccc(Cl)cc4)CO3)c2c1 | 1 (≈ 2.42 µM) | 12 | 2 | 16 | 4 (≈ 9.69 µM) | > 100 | 97.8 | IC50 (DNA gyrase): 1.2 µM
12 | COc1ccc2nccc(CC[C@H]3CC[C@H](NCc4ccc5c(c4)OCCO5)CC3)c2c1 |  | 4.2 | 0.26 | 4.5 |  |  |  | 
13 | COc1ccc2nccc(CC[C@H]3OC[C@H](NCc4ccc5c(n4)NC(=O)CS5)CO3)c2c1 | 0.5 (≈ 1.07 µM) | 31 | 1.3 | 34 | 0.5 (≈ 1.07 µM) | > 100 | 91.1 | 
14 | COc1ccc2nccc(CC[C@H]3OC[C@H](NCc4cc5c(cn4)OCCO5)CO3)c2c1 | 1 to 2 (≈ 2.29 to 4.57 µM) | 40 | 9.5 | 48 | 2 (≈ 4.57 µM) | 50 | 95.1 | 
15 | COc1ccc2nccc(CCN3CCC(NCc4ccc5c(n4)NC(=O)CO5)CC3)c2c1 |  | 19 | 3.8 | 16 |  |  |  | 
16 | COc1ccc2nccc(CC[C@H]3OC[C@H](NCc4ccc(Cl)cn4)CO3)c2c1 | 8 (≈ 19.3 µM) |  |  |  |  |  |  | 
17 | COc1ccc2nccc(CC[C@H]3OC[C@H](NCc4ccc5c(c4)OCCO5)CO3)c2c1 | 0.25 to 1 (≈ 0.573 to 2.29 µM) | 7.4 | 5.1 | 8.8 | 0.5 (≈ 1.15 µM) | 14 | 84.2 | selectivity ratio [6]: 3.5
18 | COc1ccc2nccc(CC[C@H]3OC[C@H](NCc4cccc(Cl)c4)CO3)c2c1 | 32 (≈ 77.5 µM) |  |  |  |  |  |  | 
19 | COc1ccc2nccc(CC[C@H]3CC[C@H](NCc4ccc5c(n4)NC(=O)CO5)CC3)c2c1 |  | 12 | 0.41 | 11 |  |  |  | 
20 | O=c1ccc2ncc(=O)n3c2n1C[C@H]3CN1CCC(NCc2cc3c(cn2)OCCC3)CC1 [GEPOTIDACIN] |  |  |  |  |  |  |  | IC50 [7]: 1310 µM
21 | COc1ccc2nccc(CCN3CCC(NCc4cc5c(cn4)OCCO5)CC3)c2c1 |  | 28 | 1.9 | 22 |  |  |  | 
22 | COc1ccc2nccc(CC[C@H]3OC[C@H](NCc4ccccc4)CO3)c2c1 | > 64 |  |  |  |  |  |  | 
23 | CN[C@H](CC(C)C)C(=O)N[C@H]1C(=O)N[C@@H](CC(N)=O)C(=O)N[C@H]2C(=O)N[C@H]3C(=O)N[C@H](C(=O)N[C@H](C(=O)O)c4cc(O)cc(O)c4-c4cc3ccc4O)[C@H](O)c3ccc(c(Cl)c3)Oc3cc2cc(c3O[C@@H]2O[C@H](CO)[C@@H](O)[C@H](O)[C@H]2O[C@H]2C[C@](C)(N)[C@H](O)[C@H](C)O2)Oc2ccc(cc2Cl)[C@H]1O [VANCOMYCIN] |  |  |  |  | 1 to 2 (≈ 0.69 to 1.38 µM) |  |  | 
24 | O=C(O)c1cn(C2CC2)c2cc(N3CCNCC3)c(F)cc2c1=O [CIPROFLOXACIN] |  |  |  |  |  | 14.3 | 85.5 | 
25 | COc1ccc2nccc(CC[C@H]3CC[C@H](NCc4cc5c(cn4)OCCO5)CC3)c2c1 |  | 7.5 | 0.94 | 5.7 |  |  |  | 
26 | COc1ccc2nccc(CCN3CCC(NCc4ccc(Cl)c(Cl)c4)CC3)c2c1 |  |  | 1 |  |  |  |  | 
